Laboratory results: patent US20200069775A1, “BRAIN OSTEOCALCIN RECEPTOR AND COGNITIVE DISORDERS” (The Trustees of Columbia University in the City of New York, priority 2017, published 2020)

Tests used:
[1] = tested on: mouse primary hindbrain neurons (MPHN); experiment: Calcium flux in mouse primary hindbrain neurons; type: cell-based
Description: For calcium imaging, primary hindbrain neurons seeded on 12 mm coverslips were allowed the appropriate time to form structural networks. These cultures were washed with HBSS and loaded with 2.5 μM FURA-2, AM calcium indicator for 45 minutes at room temperature, according to the manufacturer's protocol. Cells were then washed to remove excess indicator and incubated for 30 minutes to allow internalized esters to become de-esterified. 30 ng/ml of osteocalcin was prepared with the control buffer of 1× HBBS supplemented with 10 mM HEPES buffer and 2 mM CaCl2. Using a Zeiss microscope with a perfusion system, coverslips were first perfused with control and osteocalcin. After each stimulation, cells were depolarized with 50 mM KCl to determine the percentage of live cells being imaged. All treatments were recorded using two-photon laser scanning microscopy by Prairie Technologies and analyzed by Z axis profile plotting using ImageJ.
To determine if osteocalcin acts directly on neurons to modulate neurotransmitter synthesis, several types of assays were performed. First, brainstem and midbrain explants from WT and Gprc6a^−/− mice were generated. […] Third, to further confirm that osteocalcin signals in neurons of the hindbrain, calcium flux in MPHN treated with undercarboxylated or carboxylated osteocalcin (FIG. 3F) was measured.

[2] = tested on: brainstem neurons (dorsal raphe 5-HT neurons, locus coeruleus, GABAergic interneurons); experiment: Whole cell current clamp recording in brainstem slices; type: cell-based, mouse; conditions: whole cell current clamp
Description: Brain slice preparations and electrophysiological recordings were performed according to methods known in the art. Briefly, WT mice were anesthetized with ether and then decapitated. The brains were rapidly removed and immersed in an oxygenated bath solution at 40° C. containing (in mM): sucrose 220, KCl 2.5, CaCl2 1, MgC12 6, NaH2PO4 1.25, NaHCO3 26, and glucose 10 pH 7.3 with NaOH. Coronal slices (350 μm thick) containing dorsal raphe (DR) were cut on a vibratome and maintained in a holding chamber with artificial cerebrospinal fluid (ACSF) (bubbled with 5% CO2 and 95% O2) containing (in mM): NaCl 124, KCl 3, CaCl2 2, MgCl2 2, NaH2PO4 1.23, NaHCO3 26, glucose 10, pH 7.4 with NaOH, and were transferred to a recording chamber constantly perfused with bath solution (330 C) at 2 ml/min after at least a 1 hr recovery. Whole-cell current clamp was performed to observe action potentials in DR serotoninergic (5-HT) neurons with a Multiclamp 700A amplifier (Axon instrument, CA). Patch pipettes with a tip resistance of 4-6 MΩ were made of borosilicate glass (World Precision Instruments) with a Sutter pipette puller (P-97) and filled with a pipette solution containing (in mM): K-gluconate (or Cs-gluconate) 135, MgCl2 2, HEPES 10, EGTA 1.1, Mg-ATP 2, Na2-phosphocreatine 10, and Na2-GTP 0.3, pH 7.3 with KOH. After a giga-Ohm (GΩ) seal and whole-cell access were achieved, the series resistance (between 20 and 40 MΩ) was partially compensated by the amplifier. […] All data were sampled at 3-10 kHz and filtered at 1-3 kHz with an Apple Macintosh computer using Axograph 4.9 (Axon Instruments). Electrophysiological data were analyzed with Axograph 4.9 and plotted with Igor Pro software (WaveMetrics, Lake Oswego, Oreg.).

[3] = tested on: Bdnf accumulation in the hippocampus; experiment: BDNF accumulation (Western blot) in hippocampus after peripheral osteocalcin; type: in vivo, mouse; conditions: WT mice injected peripherally, 16 hours (FIG. 13h)
Description: FIG. 13. Exogenous osteocalcin improves anxiety and cognition in aged WT mice. (Panel a) EPMT performed in aged mice receiving plasma from aged, young WT, or young Ocn−/− mice, and aged WT mice receiving plasma from young Ocn−/− supplemented with 90 ng/g osteocalcin. Number of entries and time spent (s) in the open arms were scored. (Panel b) NOR performed in aged WT mice receiving plasma from WT mice either aged or young, or from young Ocn−/− mice or from young Ocn−/− supplemented with 90 ng/g osteocalcin. Preference index (time spent with novel object/total exploration time) was measured for each group. (Panel c) BDNF accumulation (representative Western blot, left) and quantification of band intensities (right) in hippocampi of aged WT mice receiving plasma from WT, either aged or young, or from young Ocn−/− mice. α-Tubulin is used as a loading control. (Panel d) DLT performed in 12 and 16 month-old WT mice treated with vehicle or osteocalcin. Number of entries in the lit compartment was measured. (Panel e) EPMT performed in 12 and 16 month-old WT mice treated with vehicle or osteocalcin. Time spent in the lit compartment and open arms was measured. (Panel f) MWMT performed over 10 days in 12 and 16 month-old WT mice treated with vehicle or osteocalcin. […] Preference index (time spent with novel object/total exploration time) was measured for each group. […]

[4] = tested on: cAMP production in hippocampal neurons; experiment: cAMP accumulation in primary hippocampal neurons; type: cell-based, mouse; conditions: cultured hippocampal neurons
Description: Hippocampal neurons were isolated from mouse embryos (embryonic day 16.5). After dissection, hippocampi were digested in Tryspin 0.05% and EDTA 0.02% for 15 minutes at 37° C. After 3 wash in DMEM (high glucose and sodium pyruvate) supplemented with 10% of fetal bovine serum, 100 U/mL Penicillin-Streptomycin and 1× GlutaMAX, cells were dissociated by pipetting up and down and then plated. After the culture was established, medium was changed 2 times per week with Neurobasal medium supplemented with B-27 supplement and 1× GlutaMAX. Experiments were performed on cells after 15 days of culture (DIV 15).
For Western blotting, frozen hippocampi from adult mice were lysed and homogenized in 250 µl tissue lysis buffer (25 mM Tris HCl 7.5; 100 mM NaF; 10 mM Na4P2O7; 10 mmM EDTA; 1% NP 40). Proteins were transferred to nitrocellulose membranes, and blocked with TBST-5% BSA for 1 hour. […] Western blot bands were quantified using ImageJ software. cAMP accumulation was measured in primary hippocampal neurons by using cAMP Parameter Assay Kit (R&D systems) and performed in primary hippocampal neurons (DIV15) following manufacturer instructions. For IP1 accumulation was determined in primary hippocampal neurons (DIV15) by using IP-One ELISA assay kit (Cisbio) following manufacturer instructions. […]

osteocalcin: Recombinant osteocalcin bacterially produced, cleaved from the GST subunit; completely undercarboxylated at all three sites; full-length mouse osteocalcin (YLGASVPSPDPLEPTREQCELNPACDELSDQYGLKTAYKRIYGITI)
calcium fluxes [1]: induced changes in calcium fluxes | action potential frequency in neurons of the locus coeruleus [2]: decreases it | action potential frequency of brainstem neurons [2]: activates the action potential frequency | action potential frequency of the GABAergic interneurons of the hindbrain [2]: inhibits the action potential frequency | Bdnf accumulation in the hippocampi [3]: increased | cAMP production [4]: did not affect cAMP production
